Data on 23 compounds can be found in patent US20260258032A1, “TYROSINE KINASE 2 INHIBITORS AND USES THEREOF” (BIOGEN MA INC., priority 2022, published 2026).

One experiment addresses T1, JH2 domain of human Tyk2 (Homo sapiens, UniProt P29597).
T1 construct: 10×His-tagged TYK2 JH2 domain (amino acid 575-876)
Briefly: JH2 biochemical assay (TR-FRET probe displacement). It is filed as binding. The method in brief: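 10×His-tagged human TYK2 JH2 (aa 575-876, 2 nM) incubated 60 min with 2 nM fluorescent probe, 0.1 nM Tb anti-His antibody and compound (10-point 3-fold series from […] top). TR-FRET 520/495 nm ratio, falling with probe displacement, normalized and fitted to a 4-parameter logistic for IC50.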
For orientation: In TR-FRET formats the signal depends on donor and acceptor labels being close together.

Experiment [1] deals with Tyk2 kinase activity on STAT4. Description: pSTAT4 cell assay (MSD, NK92 cells). Conditions: compounds 1 hr. It is filed as cell-based. The method in brief: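 NK92, serum-starved; cpd 1 hr, 10-pt 4-fold from 10 μM; IL2 30 ng/mL 15 min; lyse; MSD with anti-STAT4 Abs; IC50 by 4-PL fit.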
[2] abbreviates: TR-FRET probe displacement, JH2 domain of human Tyk2.

Counter-ions that a name gives are not always drawn. Where only a bound is given, the exact number is not on record here.

T1 sequence (P29597 575-876): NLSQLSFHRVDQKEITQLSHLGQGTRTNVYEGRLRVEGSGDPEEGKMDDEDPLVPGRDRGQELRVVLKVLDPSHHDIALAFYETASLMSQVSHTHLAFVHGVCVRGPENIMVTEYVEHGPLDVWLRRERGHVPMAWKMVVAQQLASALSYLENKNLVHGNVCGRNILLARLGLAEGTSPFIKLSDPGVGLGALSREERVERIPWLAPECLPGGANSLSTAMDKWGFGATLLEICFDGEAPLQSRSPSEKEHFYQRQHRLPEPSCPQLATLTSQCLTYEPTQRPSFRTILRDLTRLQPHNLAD

On to `CC(=O)Nc1cc2c(cn1)C1(CC1)CN2c1cc(C)cc(N2CC(C#N)(C(F)F)C2)n1` [Example 202, N-(1′-(6-(3-cyano-3-(difluoromethyl)azetidin-1-yl)-4-methylpyridin-2-yl)-1′,2′-dihydrospiro[cyclopropane-1,3′-pyrrolo[3,2-c]pyridin]-6′-yl)acetamide], for which the IC50 – broadly, the concentration that inhibits the measured activity by half – on JH2 domain of human Tyk2 (JH2 biochemical assay) is 10 to 100 nM; in experiment [1] (stimulated 15 minutes), not below 1000 nM.

On to `CC(=O)Nc1cc2c(cn1)C1(CC1)CN2c1cc(C)nc(OC2CC(F)(C#N)C2)n1` (stereo not shown) [Example 368, N-(1′-(2-(3-cyano-3-fluorocyclobutoxy)-6-methylpyrimidin-4-yl)-1′,2′-dihydrospiro[cyclopropane-1,3′-pyrrolo[3,2-c]pyridin]-6′-yl)acetamide], for which the concentration for half-maximal inhibition (IC50) on JH2 domain of human Tyk2 (JH2 biochemical assay) is 100 to 1000 nM; in experiment [1] (stimulated 15 minutes), not below 1000 nM.

For the compound `CCn1cc(-c2nc(C)cc(N3CC4(CC4)c4cnc(NC(C)=O)cc43)n2)cn1` [Example 247, N-(1′-(2-(1-ethyl-1H-pyrazol-4-yl)-6-methylpyrimidin-4-yl)-1′,2′-dihydrospiro[cyclopropane-1,3′-pyrrolo[3,2-c]pyridin]-6′-yl)acetamide], the concentration for half-maximal inhibition (IC50) at JH2 domain of human Tyk2 (JH2 biochemical assay) was not above 10 nM; in experiment [1] (stimulated 15 minutes) it was 100 to 1000 nM.

Consider `CC(=O)Nc1cc2c(cn1)C1(CC1)CN2c1cc(-c2cnn(C)c2C(F)F)nc(C(C)(F)F)n1` [Example 385, N-(1′-(2-(1,1-difluoroethyl)-6-(5-(difluoromethyl)-1-methyl-1H-pyrazol-4-yl)pyrimidin-4-yl)-1′,2′-dihydrospiro[cyclopropane-1,3′-pyrrolo[3,2-c]pyridin]-6′-yl)acetamide trifluoroacetate], for which the IC50 is not above 10 nM on JH2 domain of human Tyk2 (setting [2]) and 10 to 100 nM in experiment [1] (then stimulated 15 minutes).

With `CC(=O)Nc1cc2c(cn1)C1(CC1)CN2c1cc(C)nc(N2CC(C)(O)C2)n1` [Example 226, N-(1′-(2-(3-hydroxy-3-methylazetidin-1-yl)-6-methylpyrimidin-4-yl)-1′,2′-dihydrospiro[cyclopropane-1,3′-pyrrolo[3,2-c]pyridin]-6′-yl)acetamide], the IC50 is 10 to 100 nM at JH2 domain of human Tyk2 (JH2 biochemical assay) and not below 1000 nM in experiment [1] (stimulated 15 minutes).

With `CC(=O)Nc1cc2c(cn1)C1(CC1)CN2c1cc(OC2CC2)nc(C(C)(F)F)n1` [Example 6, N-(1′-(6-cyclopropoxy-2-(1,1-difluoroethyl)pyrimidin-4-yl)-1′,2′-dihydrospiro[cyclopropane-1,3′-pyrrolo[3,2-c]pyridin]-6′-yl)acetamide], the half-maximal inhibitory concentration (IC50) on JH2 domain of human Tyk2 (JH2 biochemical assay) is not above 10 nM; in experiment [1] (stimulated 15 minutes) it was 10 to 100 nM.

For `CC(=O)Nc1cc2c(cn1)C1(CC1)CN2c1cc(C)nc(OC2CCCC2)n1` [Example 379, N-(1′-(2-(cyclopentyloxy)-6-methylpyrimidin-4-yl)-1′,2′-dihydrospiro[cyclopropane-1,3′-pyrrolo[3,2-c]pyridin]-6′-yl)acetamide trifluoroacetate], the concentration for half-maximal inhibition (IC50) at JH2 domain of human Tyk2 (setting [2]) was 10 to 100 nM; in experiment [1] (then stimulated 15 minutes), not below 1000 nM.

Regarding `CC(=O)Nc1cc2c(cn1)C1(CC1)CN2c1cc(CN2CCC2)nc(C(C)(F)F)n1` [Example 299, N-(1′-(6-(azetidin-1-ylmethyl)-2-(1,1-difluoroethyl)pyrimidin-4-yl)-1′,2′-dihydrospiro[cyclopropane-1,3′-pyrrolo[3,2-c]pyridin]-6′-yl)acetamide], the IC50 fell in the range of 10 to 100 nM at JH2 domain of human Tyk2 (JH2 biochemical assay) and 100 to 1000 nM in experiment [1] (stimulated 15 minutes).

Consider `CC(=O)Nc1cc2c(cn1)C1(CC1)CN2c1cc(C)nc(OC2CCOC2)n1` (stereo not shown) [Example 374, N-(1′-(6-methyl-2-((tetrahydrofuran-3-yl)oxy)pyrimidin-4-yl)-1′,2′-dihydrospiro[cyclopropane-1,3′-pyrrolo[3,2-c]pyridin]-6′-yl)acetamide trifluoroacetate], for which the 50% inhibitory concentration (IC50) at JH2 domain of human Tyk2 (setting [2]) is 10 to 100 nM; in experiment [1] (then stimulated 15 minutes), not below 1000 nM.

For the compound `CC(=O)Nc1cc2c(cn1)C1(CC1)CN2c1cc(C)cc(OC2CCC(O)C2)n1` (stereo not shown) [Example 337, N-(1′-(6-((3-hydroxycyclopentyl)oxy)-4-methylpyridin-2-yl)-1′,2′-dihydrospiro[cyclopropane-1,3′-pyrrolo[3,2-c]pyridin]-6′-yl)acetamide trifluoroacetate], the results for the IC50 (at JH2 domain of human Tyk2 (JH2 biochemical assay); in experiment [1] (stimulated 15 minutes)) were 10 to 100 nM and 100 to 1000 nM, respectively.

Regarding `CC(=O)Nc1cc2c(cn1)C1(CC1)CN2c1cc(C)nc(C23COC(C2)C3)n1` [Example 320, N-(1′-(2-(2-oxabicyclo[2.1.1]hexan-4-yl)-6-methylpyrimidin-4-yl)-1′,2′-dihydrospiro[cyclopropane-1,3′-pyrrolo[3,2-c]pyridin]-6′-yl)acetamide], the half-maximal inhibitory concentration (IC50) at JH2 domain of human Tyk2 (JH2 biochemical assay) was not above 10 nM; in experiment [1] (stimulated 15 minutes), 10 to 100 nM.

For `CC(=O)Nc1cc2c(cn1)C1(CC1)CN2c1cc(C)nc(OCCF)n1` [Example 288, N-(1′-(2-(2-fluoroethoxy)-6-methylpyrimidin-4-yl)-1′,2′-dihydrospiro[cyclopropane-1,3′-pyrrolo[3,2-c]pyridin]-6′-yl)acetamide], the IC50 is not above 10 nM on JH2 domain of human Tyk2 (JH2 biochemical assay) and 100 to 1000 nM in experiment [1] (stimulated 15 minutes).

For `CC(=O)Nc1cc2c(cn1)C1(CC1)CN2c1cc(C)nc(CC2CC2)n1` [Example 62, N-(1′-(2-(cyclopropylmethyl)-6-methylpyrimidin-4-yl)-1′,2′-dihydrospiro[cyclopropane-1,3′-pyrrolo[3,2-c]pyridin]-6′-yl)acetamide], the values for the half-inhibitory concentration (IC50) (at JH2 domain of human Tyk2 (JH2 biochemical assay); in experiment [1] (stimulated 15 minutes)) were not above 10 nM and 100 to 1000 nM, respectively.

`CC(=O)Nc1cc2c(cn1)C1(CC1)CN2c1cc(C)cc(N2CCOCC2)n1` [Example 206, N-(1′-(4-methyl-6-morpholinopyridin-2-yl)-1′,2′-dihydrospiro[cyclopropane-1,3′-pyrrolo[3,2-c]pyridin]-6′-yl)acetamide]: the IC50 on JH2 domain of human Tyk2 (JH2 biochemical assay) fell in the range of 10 to 100 nM; in experiment [1] (stimulated 15 minutes), 100 to 1000 nM.

For `CC(=O)Nc1cc2c(cn1)C1(CC1)CN2c1cc(C)cc(C2(O)CCOC2)n1` (stereo not shown) [Example 95, N-(1′-(6-(3-hydroxytetrahydrofuran-3-yl)-4-methylpyridin-2-yl)-1′,2′-dihydrospiro[cyclopropane-1,3′-pyrrolo[3,2-c]pyridin]-6′-yl)acetamide], the IC50 on JH2 domain of human Tyk2 (JH2 biochemical assay) was not above 10 nM; in experiment [1] (stimulated 15 minutes) it was 100 to 1000 nM.

As for `CC(=O)Nc1cc2c(cn1)C1(CC1)CN2c1cncc(C(C)(F)F)n1` [Example 101, N-(1′-(6-(1,1-difluoroethyl)pyrazin-2-yl)-1′,2′-dihydrospiro[cyclopropane-1,3′-pyrrolo[3,2-c]pyridin]-6′-yl)acetamide], the IC50 at JH2 domain of human Tyk2 (JH2 biochemical assay) was not above 10 nM; in experiment [1] (stimulated 15 minutes) it was 100 to 1000 nM.

As for `COc1cccc(N2CC3(CC3)c3cnc(NC(C)=O)cc32)n1` [Example 313, N-(1′-(6-methoxypyridin-2-yl)-1′,2′-dihydrospiro[cyclopropane-1,3′-pyrrolo[3,2-c]pyridin]-6′-yl)acetamide], the figures for the IC50 (at JH2 domain of human Tyk2 (JH2 biochemical assay); in experiment [1] (stimulated 15 minutes)) were 10 to 100 nM and not below 1000 nM, respectively.

`CC(=O)Nc1cc2c(cn1)C1(CC1)CN2c1cc(-c2cnn(C(F)F)c2)nc(C(C)(F)F)n1` [Example 383, N-(1′-(2-(1,1-difluoroethyl)-6-(1-(difluoromethyl)-1H-pyrazol-4-yl)pyrimidin-4-yl)-1′,2′-dihydrospiro[cyclopropane-1,3′-pyrrolo[3,2-c]pyridin]-6′-yl)acetamide trifluoroacetate]: the IC50 on JH2 domain of human Tyk2 (setting [2]) was not above 10 nM; in experiment [1] (then stimulated 15 minutes), 10 to 100 nM.

With `CC(=O)Nc1cc2c(cn1)C1(CC1)CN2c1cc(C)nc(C(C)(C)C)n1` [Example 55, N-(1′-(2-(tert-butyl)-6-methylpyrimidin-4-yl)-1′,2′-dihydrospiro[cyclopropane-1,3′-pyrrolo[3,2-c]pyridin]-6′-yl)acetamide], the IC50 is not above 10 nM at JH2 domain of human Tyk2 (JH2 biochemical assay) and 100 to 1000 nM in experiment [1] (stimulated 15 minutes).

Consider `CC(=O)Nc1cc2c(cn1)C1(CC1)CN2c1cc([C@@H]2C[C@@H]2C#N)nc(C(C)(F)F)n1` (racemic) [Example 73, cis-rac-N-(1′-(6-(2-cyanocyclopropyl)-2-(1,1-difluoroethyl)pyrimidin-4-yl)-1′,2′-dihydrospiro[cyclopropane-1,3′-pyrrolo[3,2-c]pyridin]-6′-yl)acetamide or trans-rac-N-(1′-(6-(2-cyanocyclopropyl)-2-(1,1-difluoroethyl)pyrimidin-4-yl)-1′,2′-dihydrospiro[cyclopropane-1,3′-pyrrolo[3,2-c]pyridin]-6′-yl)acetamide], for which the IC50 was not above 10 nM on JH2 domain of human Tyk2 (JH2 biochemical assay) and 10 to 100 nM in experiment [1] (stimulated 15 minutes).

Turning to `CC(=O)Nc1cc2c(cn1)C1(CC1)CN2c1cc(NCC2(F)CC2)nc(C(C)(F)F)n1` [Example 160, N-(1′-(2-(1,1-difluoroethyl)-6-(((1-fluorocyclopropyl)methyl)amino)pyrimidin-4-yl)-1′,2′-dihydrospiro[cyclopropane-1,3′-pyrrolo[3,2-c]pyridin]-6′-yl)acetamide trifluoroacetate], the IC50 was not above 10 nM at JH2 domain of human Tyk2 (JH2 biochemical assay) and 10 to 100 nM in experiment [1] (stimulated 15 minutes).

For the compound `CC(=O)Nc1cc2c(cn1)C1(CC1)CN2c1nc(C(C)(F)F)cs1` [Example 79, N-(1′-(4-(1,1-difluoroethyl)thiazol-2-yl)-1′,2′-dihydrospiro[cyclopropane-1,3′-pyrrolo[3,2-c]pyridin]-6′-yl)acetamide trifluoroacetate], the IC50 was 10 to 100 nM at JH2 domain of human Tyk2 (JH2 biochemical assay) and not below 1000 nM in experiment [1] (stimulated 15 minutes).

`Cc1cc(N2CC3(CC3)c3cnc(NC(=O)N(C)C)cc32)nc(C(C)(F)F)n1` [Example 278, 3-(1′-(2-(1,1-difluoroethyl)-6-methylpyrimidin-4-yl)-1′,2′-dihydrospiro[cyclopropane-1,3′-pyrrolo[3,2-c]pyridin]-6′-yl)-1,1-dimethylurea]: the IC50 at JH2 domain of human Tyk2 (JH2 biochemical assay) was 100 to 1000 nM; in experiment [1] (stimulated 15 minutes) it was not below 1000 nM.
